For 59 compounds, IC50 results are on record in patent US9718790B2, “Triazine derivative and pharmaceutical composition having an analgesic activity comprising the same” (SHIONOGI & CO., LTD., priority 2010, dated 2017).

In one experiment the target is human P2X3 receptor (Homo sapiens (Human), UniProt P56373). The experiment in a line: Evaluation of human P2X3 receptor inhibitory activity (Fluo-3 calcium fluorescence, FDSS 3000, ATP stimulation).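 Also: stimulus was 50 nM ATP with fluorescence followed for 3 min, and the response per well was peak post-ATP fluorescence divided by the reading at measurement start.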 It counts as cell-based. To be noted: C6BU-1 cells stably expressing human P2X3 receptor.
Chain of human P2X3 receptor (P56373 whole entry): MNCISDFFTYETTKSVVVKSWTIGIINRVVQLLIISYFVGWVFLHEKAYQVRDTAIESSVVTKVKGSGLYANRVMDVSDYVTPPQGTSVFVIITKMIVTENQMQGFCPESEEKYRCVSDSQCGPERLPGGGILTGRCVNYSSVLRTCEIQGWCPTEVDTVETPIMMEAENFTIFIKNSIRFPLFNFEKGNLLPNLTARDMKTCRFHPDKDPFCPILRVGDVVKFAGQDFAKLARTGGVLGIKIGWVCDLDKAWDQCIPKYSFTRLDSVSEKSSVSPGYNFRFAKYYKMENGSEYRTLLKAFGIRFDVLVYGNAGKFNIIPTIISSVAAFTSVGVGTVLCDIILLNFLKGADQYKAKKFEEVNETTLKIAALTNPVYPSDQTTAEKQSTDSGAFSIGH
For orientation: IC50 means the midpoint of a concentration-inhibition curve. Regarding `Cc1[nH]c2ccc(/N=c3\[nH]c(=O)n(CCC(N)=O)c(=O)n3Cc3ccc(Cl)cc3)cc2c1C` [Compound I-1966], the IC50 is 11 nM.
On the same count and under the same terms, with `Cc1ccc(Cn2c(=O)n(CCC(=O)O)c(=O)[nH]/c2=N\c2ccc(CC(C)C)c(F)c2)cc1` [Compound I-1299] the figure was 51 nM; with `CC1Cc2cc(/N=c3\[nH]c(=O)n(C[C@H](C)C(=O)O)c(=O)n3Cc3ccc(Cl)cc3)ccc2O1` (some centres unmarked) [Compound I-1466], 121 nM.
Same read-out and setting: with `CCn1c(=O)[nH]/c(=N\c2ccc(Oc3cncc(C(=O)O)c3)cc2)n(CC2CCC(C)(C)CC2)c1=O` [Compound I-2207] the figure was 69 nM; with `CC(C)NC(=O)c1ccc(/N=c2\[nH]c(=O)n(C[C@H](C)C(=O)O)c(=O)n2Cc2ccc(Cl)cc2)cc1Cl` [Compound I-1414], 986 nM.
For `COC(=O)[C@@H](C)Cn1c(=O)[nH]/c(=N\c2ccc(OC(C)C)cc2)n(Cc2ccc(F)cc2)c1=O` [Compound I-0618], the IC50 amounted to 121 nM.
On the same count and under the same terms, with `CCCOc1ccc(/N=c2\[nH]c(=O)n(C(C)(C)CC(=O)OCC)c(=O)n2Cc2ccc(Cl)cc2)cc1` [Compound I-0821] the figure was 50 nM.
In the case of `Cc1ccc(Cn2c(=O)n([C@H](C)[C@H](C)C(=O)O)c(=O)[nH]/c2=N\c2ccc(CC(C)C)c(Cl)c2)cc1` [Compound I-1444], the IC50 amounted to 4 nM.
The same measure, in the same setting: the result for `COC(=O)CCn1c(=O)[nH]/c(=N\c2ccc(OC(C)C)c(Cl)c2)n(Cc2ccc(C)cc2)c1=O` [Compound I-2023] reads 4 nM; that for `CCOC(=O)CCn1c(=O)[nH]/c(=N\c2ccc(OC3CCC3)c(C)c2)n(Cc2ccc(C)cc2)c1=O` [Compound I-1400], 13 nM; that for `COC(=O)[C@@H](C)Cn1c(=O)[nH]/c(=N\c2ccc(CCC3CC3)cc2)n(Cc2ccc(C)cc2)c1=O` [Compound I-1202], 93 nM.
Consider `CCCc1ccc(/N=c2\[nH]c(=O)n(C[C@H](C)C(=O)O)c(=O)n2Cc2ccc(C)cc2)cc1Cl` [Compound I-1267], for which the IC50 amounted to 9 nM.
With `COC(=O)CCCCn1c(=O)[nH]/c(=N\c2ccc3nc(C)sc3c2)n(Cc2ccc(C)cc2)c1=O` [Compound I-2155], the IC50 stood at 4 nM.
On the same count and under the same terms, with `Cc1ccc(Oc2ccc(/N=c3\[nH]c(=O)n(CC(C)(C)C(=O)O)c(=O)n3Cc3ccc(Cl)cc3)cc2)cn1` [Compound I-1358] the figure was 9 nM; with `O=c1[nH]/c(=N\c2ccc3nc(C(F)(F)F)sc3c2)n(Cc2ccc(Cl)cc2)c(=O)n1CCO` [Compound I-2167], 54 nM.
Still for that read-out and setting: with `O=C(O)CCn1c(=O)[nH]/c(=N\c2ccc(Oc3cncc(F)c3)cc2)n(Cc2ccc(Cl)cc2)c1=O` [Compound I-1412] the figure was 11 nM; with `O=C(O)CCn1c(=O)[nH]/c(=N\c2ccc(Oc3cccnc3)cc2)n(Cc2ccc(Cl)cc2)c1=O` [Compound I-1206], 43 nM.
As to `Cc1cc(/N=c2\[nH]c(=O)n(CCCC(=O)NCCO)c(=O)n2Cc2ccc(Cl)cc2)ccc1OC(C)C` [Compound I-0788], the IC50 amounted to 32 nM.
The same measure, in the same setting: the result for `COC(=O)[C@@H](C)Cn1c(=O)[nH]/c(=N\c2ccc(OC(C)C)c(Cl)c2)n(Cc2ccc(F)cc2)c1=O` [Compound I-0626] reads 22 nM; that for `CC(C)OCc1ccc(/N=c2\[nH]c(=O)n(C[C@H](C)C(=O)O)c(=O)n2Cc2ccc(Cl)cc2)cc1` [Compound I-0669], 193 nM; that for `CCOC(=O)CCn1c(=O)[nH]/c(=N\c2ccc3[nH]c(C)c(C)c3c2)n(Cc2ccc(Cl)cc2)c1=O` [Compound I-1931], 9 nM.
In the case of `CCCn1c(=O)[nH]/c(=N\c2ccc(Oc3ccc(C(=O)O)nc3)cc2)n(Cc2ccc(Cl)cc2)c1=O` [Compound I-2161], the IC50 came out at 14 nM.
Same read-out and setting: the result for `CCCc1ccc(/N=c2\[nH]c(=O)n(CCC(=O)OCC)c(=O)n2Cc2ccc(Cl)cc2)cc1C` [Compound I-1250] reads 54 nM; that for `CC(C)c1cccc(/N=c2\[nH]c(=O)n(C[C@H](C)C(=O)O)c(=O)n2Cc2ccc(Cl)cc2)c1` [Compound I-0792], 170 nM; that for `COC(=O)[C@@H](C)Cn1c(=O)[nH]/c(=N\c2ccc(CC#N)c(Cl)c2)n(Cc2ccc(Cl)cc2)c1=O` [Compound I-0766], 438 nM.
On the same count and under the same terms, the result for `CCc1ccc(/N=c2\[nH]c(=O)n(C[C@H](C)C(=O)OC)c(=O)n2Cc2ccc(Cl)cc2)cc1C` [Compound I-0815] reads 189 nM; that for `COC(=O)[C@H](C)[C@H](C)n1c(=O)[nH]/c(=N\c2ccc(CC(C)C)c(OC)c2)n(Cc2ccc(Cl)cc2)c1=O` [Compound I-1363], 56 nM.

The same experiment, now with this note: C6BU-1 cells stably expressing human P2X3 receptor, Fluo-3 fluorescence, FDSS 3000.
As for `CCCOc1ccc(/N=c2\[nH]c(=O)n(CC3(C(=O)OCC)CC3)c(=O)n2Cc2ccc(Cl)cc2)cc1` [Compound I-0919], the IC50 stood at 14 nM.
For the compound `CCn1c(=O)[nH]/c(=N\c2ccc(Oc3cncc(C(=O)O)c3)cc2)n(Cc2ccc(Cl)cc2)c1=O` [Compound I-1885], the concentration for half-maximal inhibition (IC50) was determined as 7 nM.
In the case of `Cc1ccc(Cn2c(=O)n(CCCCC(=O)O)c(=O)[nH]/c2=N\c2ccc(OC(C)C)c(Cl)c2)cc1` [Compound I-1878], the IC50 was determined as 10 nM.
Still for that read-out and setting: with `CCC[C@H](C)Oc1ccc(/N=c2\[nH]c(=O)n(CCC(=O)O)c(=O)n2Cc2ccc(C)cc2)cc1` [Compound I-1067] the figure was 93 nM; with `CCc1oc2ccc(/N=c3\[nH]c(=O)n(CCCO)c(=O)n3Cc3ccc(Cl)cc3)cc2c1C` [Compound I-1625], 6 nM.
The same measure, in the same setting: the result for `Cc1ccc(Cn2c(=O)n(CC3(CC(=O)O)CC3)c(=O)[nH]/c2=N\c2ccc(OC(C)C)c(C)c2)cc1` [Compound I-0984] reads 21 nM; that for `COC(=O)[C@@H](C)Cn1c(=O)[nH]/c(=N\c2ccc(OCC3CC3)c(Cl)c2)n(Cc2ccc(C)cc2)c1=O` [Compound I-0958], 30 nM; that for `O=c1[nH]/c(=N\c2ccc(Oc3ccc(O)nc3)cc2)n(Cc2ccc(Cl)cc2)c(=O)n1CCO` [Compound I-1789], 30 nM.
Still for that read-out and setting: the result for `CNC(=O)Cn1c(=O)[nH]/c(=N\c2ccc3nc(C)sc3c2)n(Cc2ccc(Cl)cc2)c1=O` [Compound I-1660] reads 5 nM; that for `CC[C@@H](C)Oc1ccc(/N=c2\[nH]c(=O)n(CCC(=O)O)c(=O)n2Cc2ccc(C)cc2)cc1C` [Compound I-1029], 35 nM; that for `CCOC(=O)CCn1c(=O)[nH]/c(=N\c2ccc3nc(C(C)C)sc3c2)n(Cc2ccc(C)cc2)c1=O` [Compound I-1562], 6 nM.

Staying with this experiment, now noted: human P2X3 receptor, Test Example 1.
On to `C=Cc1ccc(Cn2c(=O)n(C[C@H](C)C(=O)OC)c(=O)[nH]/c2=N\c2ccc(OC(C)C)c(C)c2)cc1` [Compound I-0892, (S)-1-(4-vinylbenzyl)-6-(3-mehyl-4-isopropoxyphenylimino)-3-(2-methoxycarbonylpropyl)-1,3,5-triazinane-2,4-dion], for which the half-inhibitory concentration (IC50) amounted to 18 nM.
On the same count and under the same terms, the result for `CC[C@H](C)n1c(=O)[nH]/c(=N\c2ccc(Oc3cncc(C(=O)O)c3)cc2)n(Cc2ccc(Cl)cc2)c1=O` [Compound I-2481] reads 8 nM; that for `CCn1c(=O)[nH]/c(=N\c2ccc(Oc3ccnc(NCC(=O)NC)c3)cc2)n(Cc2ccc(Cl)cc2)c1=O` [Compound I-2555], 16 nM.
On to `O=C(O)Cn1c(=O)[nH]/c(=N\c2ccc(Oc3ncns3)cc2)n(Cc2ccc(Cl)cc2)c1=O` [Compound I-2659], for which the IC50 came out at 277 nM.
The same measure, in the same setting: the result for `CCn1c(=O)[nH]/c(=N\c2ccc(Oc3cncc(C)n3)cc2)n(Cc2ccc(Cl)cc2)c1=O` [Compound I-2638] reads 15 nM.
On the same count and under the same terms, the result for `Cc1ccc(Cn2c(=O)n(C[C@H](C)C(=O)O)c(=O)[nH]/c2=N\c2ccc(CC(C)C)cc2)cc1` [Compound I-0872] reads 81 nM; that for `Cn1c(=O)[nH]/c(=N\c2ccc(Oc3cc(C(N)=O)n[nH]3)cc2)n(Cc2ccc(Cl)cc2)c1=O` [Compound I-2416], 54 nM; that for `CNC(=O)Nc1cc(Oc2ccc(/N=c3\[nH]c(=O)n(C)c(=O)n3Cc3ccc(Cl)cc3)cc2)ccn1` [Compound I-2656], 6 nM.
For `CCOC(=O)CCn1c(=O)[nH]/c(=N\c2ccc3nc(C)sc3c2)n(Cc2ccc(C)cc2)c1=O` [Compound I-1519], the IC50 was 2 nM.
The same measure, in the same setting: with `O=C(Cn1c(=O)[nH]/c(=N\c2ccc(Oc3ccon3)cc2)n(Cc2ccc(Cl)cc2)c1=O)NCC(F)(F)F` [Compound I-2681] the figure was 4 nM.
For the compound `CCn1c(=O)[nH]/c(=N\c2ccc(Oc3nnn[nH]3)cc2)n(Cc2ccc(Cl)cc2)c1=O` [Compound I-2515], the IC50 is 346 nM.
Same read-out and setting: with `N#Cc1ccc(Oc2ccc(/N=c3\[nH]c(=O)n(CCO)c(=O)n3Cc3ccc(Cl)cc3)cc2)cc1` [Compound I-2545] the figure was 7 nM; with `CCn1c(=O)[nH]/c(=N\c2ccc3nc(OCC(=O)OC)sc3c2)n(Cc2ccc(Cl)cc2)c1=O` [Compound I-2324], 115 nM.
The same measure, in the same setting: with `Cc1ccc(Cn2c(=O)n(C[C@H](C)C(=O)O)c(=O)[nH]/c2=N\c2ccc(C(C)C)c(Cl)c2)cc1` [Compound I-1494] the figure was 571 nM; with `CCn1c(=O)[nH]/c(=N\c2ccc(Oc3ccc(F)c(C(N)=O)c3)cc2)n(Cc2ccc(Cl)cc2)c1=O` [Compound I-2235], 4 nM.
Same read-out and setting: with `CCn1c(=O)[nH]/c(=N\c2ccc(Oc3ccnnc3)cc2)n(Cc2ccc(Cl)cc2)c1=O` [Compound I-2600] the figure was 4 nM; with `N#Cc1ccc(Oc2ccc(/N=c3\[nH]c(=O)n(C[C@@H](O)CO)c(=O)n3Cc3ccc(Cl)cc3)cc2)cc1` [Compound I-2560], 5 nM.
Consider `Cc1ccc(Cn2c(=O)n(CCC(=O)O)c(=O)[nH]/c2=N\c2ccc(Oc3cc(C(=O)O)ccn3)cc2)cc1` [Compound I-2671], for which the IC50 was 36 nM.
The same measure, in the same setting: the result for `CC[C@@H](C)Oc1ccc(/N=c2\[nH]c(=O)n(C[C@H](C)C(=O)O)c(=O)n2Cc2ccc(C)cc2)cc1C` [Compound I-0853] reads 13 nM; that for `O=C(O)CCn1c(=O)[nH]/c(=N\c2ccc(Oc3ncns3)cc2)n(Cc2ccc(Cl)cc2)c1=O` [Compound I-2698], 25 nM; that for `O=C(O)CCn1c(=O)[nH]/c(=N\c2ccc(Oc3ncccn3)cc2)n(Cc2ccc(Cl)cc2)c1=O` [Compound I-2557], 19 nM.
